Here are results for 23 compounds from patent publication US12686690B2, “Macrocyclic urea orexin receptor agonists” (Merck Sharp & Dohme LLC, priority 2020, dated 2026).

In the assay the target is T1, hOX2R (Homo sapiens, UniProt O43614).
T1 construct: expressed in transfected cells; host or cells: CHO cells (G418 selection)
T1 sequence (O43614 1-444): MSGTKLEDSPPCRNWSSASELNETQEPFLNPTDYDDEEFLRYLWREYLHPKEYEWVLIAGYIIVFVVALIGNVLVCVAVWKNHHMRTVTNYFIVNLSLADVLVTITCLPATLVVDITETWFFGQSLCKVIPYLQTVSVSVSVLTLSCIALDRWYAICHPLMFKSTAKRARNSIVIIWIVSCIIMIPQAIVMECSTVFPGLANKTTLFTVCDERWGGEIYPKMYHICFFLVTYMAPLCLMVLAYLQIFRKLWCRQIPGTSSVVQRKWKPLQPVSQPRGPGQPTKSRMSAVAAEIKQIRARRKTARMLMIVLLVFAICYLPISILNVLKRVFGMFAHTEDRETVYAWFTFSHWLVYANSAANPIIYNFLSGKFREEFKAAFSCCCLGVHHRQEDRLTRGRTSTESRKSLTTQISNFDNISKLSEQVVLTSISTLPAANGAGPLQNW
The assay can be described thus: hOX2R IPone assay (orexin receptor agonism). To be noted: IPone readout; for hOX2R_Ipone max %act: maximal activation; for EC50: orexin receptor agonist, read-out: hOX2R_IPone EC50. It counts as cell-based.

`CCN1C(=O)N[C@@H](CCC(F)(F)F)CCCCCOc2nc(cn3ccnc23)-c2cc(nnc2OC)[C@H]1C` [Example 116, (12R,16R)-13-ethyl-8-methoxy-12-methyl-16-(3,3,3-trifluoropropyl)-12,13,16,17,18,19,20,21-octahydro-6,23-(azeno)-11,7-(metheno)imidazo[2,1-c][1,4,9,10,13,15]oxapentaazacyclohenicosin-14(15H)-one]: the hOX2R_Ipone max %act was 99.7% and the EC50 (in general, the concentration giving half of the maximal effect) was 1.6 nM.
As for `CCN1C(=O)N[C@@H](CCC(F)(F)F)CCCCCOc2nc(cc3ccnn23)-c2cc(ncc2OC)C1C` (single isomer, unassigned) [Example 88B], the hOX2R_Ipone max %act came to 102.3% and the EC50 was 0.7 nM.
Regarding `CCN1C(=O)N[C@@H](CC(F)(F)F)CCCCOc2nc(cn3ncnc23)-c2cc(ncc2OC)C1C(F)(F)F` (stereo partly drawn) [Example 38, (16R)-13-ethyl-8-methoxy-16-(2,2,2-trifluoroethyl)-12-(trifluoromethyl)-12,13,15,16,17,18,19,20-octahydro-14H-6,22-(azeno)-11,7-(metheno) [1,2,4]triazolo[5,1-c][1,4,10,13,15]oxatetra-azacycloicosin-14-one], the hOX2R_Ipone max %act is on record as 94.5% and the EC50 is 2390 nM.
Consider `CCN1C(=O)NC(COC)CCCCCOc2nc(cn3ccnc23)-c2cc(ncc2OC)[C@H]1C` (single isomer, unassigned) [Example 58B], for which the hOX2R_Ipone max %act was determined as 101.1% and the EC50 is 0.9 nM.
For `CCN1C(=O)NC(C2CC2(F)F)CCCCCOc2nc(cn3ccnc23)-c2cc(ncc2OC)[C@H]1C` (stereo partly drawn) [Example 192, (3R,E)-7-(2,2-difluorocyclopropyl)-4-ethyl-25-methoxy-3-methyl-13-oxa-4,6-diaza-1(6,8)-imidazo[1,2-a]pyrazina-2(4,2)-pyridinacyclotri-decaphan-5-one], in that order: 100.9% and 0.46 nM.
For `CCN1C(=O)N[C@@H](CCC(F)(F)F)CCCCCOc2nc(cn3ncnc23)-c2nc(ncc2OC)[C@H]1C` [Example 147, (3R,7R,E)-4-ethyl-25-methoxy-3-methyl-7-(3,3,3-trifluoropropyl)-13-oxa-4,6-diaza-1(6,8)-[1,2,4]triazolo[1,5-a]pyrazina-2(4,2)-pyrimidinacyclotridecaphan-5-one] the same measures were 102.4% and 3.69 nM.
For `CCN1C(=O)N[C@@H](CCC(F)(F)F)CCCCCOc2nc(nn3ccnc23)-c2ccnc(c2)[C@H]1C` [Example 102, (12R,16R)-13-ethyl-12-methyl-16-(3,3,3-trifluoropropyl)-12,13,16,17,18,19,20, 21-octahydro-6,23-(azeno)-11,7-(metheno)imidazo[2,1-c][1,4,5,10,13,15] oxapentaazacycloheni-cosin-14(15H)-one] the same measures were 101.4% and 14.9 nM.
As for `CCN1C(=O)N[C@@H](CCC(F)(F)F)CCCCCCOc2nc(cn3ccnc23)-c2cc(ncc2OC)[C@H]1C` [Example 109, (3R,7R,E)-4-ethyl-25-methoxy-3-methyl-7-(3,3,3-trifluoropropyl)-14-oxa-4,6-diaza-1(6,8)-imidazo[1,2-a]pyrazina-2(4,2)-pyridinacyclotetra-decaphan-5-one], the hOX2R_Ipone max %act came to 102.4% and the EC50 was 1.5 nM.
For `CCN1C(=O)NCCCN2CCCC2COc2nc(cn3ccnc23)-c2cccc(c2)[C@H]1C` (mixture of isomers) [Example 4, (12R)-13-ethyl-12-methyl-12,13,15,16,17,18,21,22,22a, 23-decahydro-14H,20H-6,25-(azeno)-11,7-(metheno)imidazo[1,2-s]pyrrolo[2,1-c][1,4,8,10,19]oxatetraaza-cyclohenicosin-14-one], in that order: 79.4% and 3840 nM.
As to `CCN1C(=O)NC(CC2(F)CC2)CCCCCOc2nc(cn3ccnc23)-c2cc(ncc2OC)[C@H]1C` (stereo partly drawn) [Example 183, (3R,E)-4-ethyl-7-((1-fluorocyclopropyl)methyl)-25-methoxy-3-methyl-13-oxa-4,6-diaza-1(6,8)-imidazo[1,2-a]pyrazina-2(4,2)-pyridinacyclotridecaphan-5-one], the hOX2R_Ipone max %act came to 100.2% and the EC50 stood at 1 nM.
In the case of `CCN1C(=O)N[C@@H](CCC(F)(F)F)CCCCCOc2nc(cn3ccnc23)-c2cc(ncc2C)[C@H]1C` [Example 79, (12R,16R)-13-ethyl-8,12-dimethyl-16-(3,3,3-trifluoro-propyl)-12,13,16,17, 18,19,20,21-octa-hydro-6,23-(azeno)-11,7-(metheno) imidazo[2,1-c][1,4,10, 13,15]oxatetraazacyclo-henicosin-14(15H)-one], the hOX2R_Ipone max %act worked out at 99.3% and the EC50 came to 1 nM.
`CCN1C(=O)NCC(C(F)(F)F)N(C)CCCOc2nc(cn3ccnc23)-c2cccc(c2)C1C` [Example 26B, (3R,E)-4-ethyl-3,9-dimethyl-8-(trifluoromethyl)-13-oxa-4,6,9-triaza-1(6,8)-imidazo[1,2-a]pyrazina-2(1,3)-benzenacyclotridecaphan-5-one]: the hOX2R_Ipone max %act was found to be 98.8% and the EC50 was determined as 12 nM.
For `CCN1C(=O)N[C@@H](CCC(F)(F)F)CCCCCOc2nc(cn3ccnc23)C2=NC=C(S2)C1C` (single isomer, unassigned) [Example 94B] the same measures were 100.3% and 54.4 nM.
For `CCN1C(=O)NC(CCC(F)(F)F)CC(C)CCOc2nc(cn3ccnc23)-c2cccc(c2)[C@H]1C` (single isomer, unassigned) [Example 48B] the same measures were 99.9% and 88.8 nM.
For `CCN1C(=O)NC(CC2(C(F)F)CC2)CCCCCOc2nc(cn3ccnc23)-c2cc(ncc2OC)[C@H]1C` (single isomer, unassigned) [Example 70B] the same measures were 99.8% and 1.1 nM.
Regarding `CCN1C(=O)NC(CCC(F)F)CCCCCOc2nc(nn3ccnc23)-c2cc(ncc2OC)[C@H]1C` (stereo partly drawn) [Example 202, (3R,E)-7-(3,3-difluoropropyl)-4-ethyl-25-methoxy-3-methyl-13-oxa-4,6-diaza-1(2,4)-imidazo[2,1-f][1,2,4]triazina-2(4,2)-pyridina-cyclotridecaphan-5-one], the hOX2R_Ipone max %act amounted to 99.8% and the EC50 was determined as 1.7 nM.
For `CCN1C(=O)N[C@@H](CCC(F)(F)F)CCCCCOc2nc(cn3ccnc23)-c2cc(c(C)cn2)C1C` (single isomer, unassigned) [Example 92B] the same measures were 99.1% and 24.2 nM.
For `CCN1C(=O)N[C@@H](CCC(F)(F)F)CCCCCOc2nc(cn3ccnc23)-c2cc(C)nc(c2)[C@@H]1C` [Example 107A, (12S,16R)-13-ethyl-9,12-dimethyl-16-(3,3,3-trifluoropropyl)-12,13,16,17,18,19,20, 21-octahydro-6,23-(azeno)-11,7-(metheno)imidazo[2,1-c][1,4,10,13,15] oxatetraazacycloheni-cosin-14(15H)-one] the same measures were 92.7% and 166 nM.
Regarding `CCN1C(=O)N[C@@H](CCC(F)(F)F)CCCCCOc2nc(cn3ccnc23)C2=CN=C(S2)C1C` (stereo partly drawn) [Example 95, (15R)-12-ethyl-11-methyl-15-(3,3,3-trifluoropropyl)-11,12,15,16,17,18,19, 20-octahydro-6,22-(azeno)-7,10-epithioimidazo[2,1-c][1,4,9,12,14]oxatet-raazacycloicosin-13(14H)-one], the hOX2R_Ipone max %act was 99.78% and the EC50 was 25.4 nM.
For `CCN1C(=O)NC(CC(O)C(F)(F)F)CCCCCOc2cn3ncnc3c(n2)-c2cc(ncc2OC)C1C` [Example 130, (3R,7R,E)-4-ethyl-25-methoxy-3-methyl-7-((R)-3,3,3-trifluoro-2-hydroxypropyl)-13-oxa-4,6-diaza-1(6,8)-[1,2,4]triazolo[1,5-a]pyrazina-2(4,2)-pyridinacyclotridecaphan-5-one], in that order: 102% and 1.48 nM.
As for `CCN1C(=O)N[C@@H](CCC(F)(F)F)CCCCCOc2nc(cn3ccnc23)-c2ccnc(c2)C1(C)C` [Example 143, (R,E)-4-ethyl-3,3-dimethyl-7-(3,3,3-trifluoropropyl)-13-oxa-4,6-diaza-1(6,8)-imidazo[1,2-a]pyrazina-2(4,2)-pyridinacyclotridecaphan-5-one], the hOX2R_Ipone max %act was determined as 89.95% and the EC50 was 271 nM.
On to `CCN1C(=O)NCCN2CCCC(C2)Oc2nc(cn3ccnc23)-c2cccc(c2)[C@H]1C` (mixture of isomers) [Example 5, (7R)-8-ethyl-7-methyl-18-oxa-8,10,13,21,24,26-hexaazapentacyclo[17.6.1.1~ 2,6~.1~13,17~.0~20,24~] octacosa-1(25),2(28),3,5,19(26),20,22-heptaen-9-one (non-preferred name)], for which the hOX2R_Ipone max %act is 93.82% and the EC50 was 1380 nM.
For `CCN1C(=O)N[C@@H](CCC(F)(F)F)CCCCCOc2nc(cn3ccnc23)-c2cc(ncn2)C1C` (stereo partly drawn) [Example 112B, (16R)-13-ethyl-12-methyl-16-(3,3,3-trifluoropropyl)-12,13,16,17,18,19,20,21-octahydro-6,23-(azeno)-11,7-(metheno)imidazo[2,1-c][1,4,8,10,13,15]oxapentaazacyclohenicosin-14(15H)-one] the same measures were 101.8% and 9.3 nM.
